Counter-ions that a name gives are not always drawn.

For this experiment, the system named is IRE1-XBP1s (HEK293 T-REx cells stably expressing the XBP1-RLuc splicing reporter). Put plainly: IRE1-XBP1s activation Assay (XBP1-RLuc splicing reporter, luminescence relative to thapsigargin, with or without IRE1 inhibitor 4μ8C). The experiment is classed as cell-based. The settings on record: 18 h, compound 10 μM, luminescence as percentage signal relative to thapsigargin (Tg) (500 nM, 18 h). The method, then:
IRE1-XBP1s activation Assay: HEK293 T-REx cells stably expressing the XBP1-RLuc splicing reporter were treated with an IRE1-XBP1s activator provided herein (10 μM) in the presence or absence of the IRE1 active site inhibitor 4μ8C (32 μM) for 18 h. Luminescence was shown as the percentage signal relative to thapsigargin (Tg) (500 nM, 18 h).
Turning to `O=C(CCNc1ccnc(F)n1)Nc1cnn(CC(=O)N2CCC[C@@H](Oc3ccc(C(F)F)cc3)C2)c1` [Compound 187], the activation at 10 µM was under 30%.
For `Cc1ccc(OC2CCCN(C(=O)Cn3cc(NC(=O)CCOc4ccccc4Cl)cn3)C2)cc1` (stereo not drawn) [Compound 39] the value was at least 50%; for `O=C(CCOc1ccccc1)Nc1cnn(CC(=O)N2CCCN(Cc3ccncc3)CC2)c1` [Compound 52, N-(1-(2-oxo-2-(4-(pyridin-4-ylmethyl)-1,4-diazepan-1-yl)ethyl)-1H-pyrazol-4-yl)-3-phenoxypropanamide], under 30%; for `Cc1ccc(C2=CC(C)(C)Oc3cc(N(C)C(=O)Cn4cc(NC(=O)CCOc5ccccc5)cn4)ccc32)cc1` [Compound 59, N-(1-(2-((2,2-dimethyl-4-(p-tolyl)-2H-chromen-7-yl)(methyl)amino)-2-oxoethyl)-1H-pyrazol-4-yl)-3-phenoxypropanamide], under 30%.
On to `Cc1ccc(OCCN(C)C(=O)Cn2cc(NC(=O)c3cnccc3N)cn2)cc1` [Compound 112], for which the activation at 10 µM was under 30%.
With `Cc1ccc(OC2CCCN(C(=O)Cn3cc(NC(=O)CCOc4c(F)cccc4F)cn3)C2)cc1` (stereo not drawn) [Compound 86], the activation at 10 µM lay within 30 to 50%.
For `Cc1ccc(OC2CCC23CN(C(=O)Cn2cc(NC(=O)C4CC(Oc5ccncc5)C4)cn2)C3)cc1` (stereo not drawn) [Compound 144] the value was at least 50%; for `Cc1ccc(OCCN(C)C(=O)Cn2cc(NC(=O)C3CCCC3Nc3ccnc(F)n3)cn2)cc1` (stereo not drawn) [Compound 166], under 30%; for `Cc1ccc(O[C@@H]2CCCN(C(=O)Cn3cc(NC(=O)CCOc4ccccc4F)cn3)C2)cc1` [Compound 72], at least 50%.
`Cc1ccc(O[C@H]2CCCN(C(=O)Cn3cc(NC(=O)C4CN(C(=O)OC(C)(C)C)c5ccccc5O4)cn3)C2)cc1` (stereo partly drawn) [Compound 121] gave an activation at 10 µM of under 30%.
For `Cc1ccc(O[C@H]2CCCN(C(=O)Cn3cc(NC(=O)[C@H]4C[C@H](Oc5ccccn5)C4)cn3)C2)cc1` [Compound 106] the value was at least 50%.
Under `Cc1ccc(OCCN(C)C(=O)Cn2cc(NC(=O)C3CN(C(=O)OC(C)(C)C)c4ccccc4O3)cn2)cc1` (stereo not drawn) [Compound 73] stands under 30%; under `Cc1ccc(OC2COCCN(C(=O)Cn3cc(NC(=O)CCOc4ccccc4)cn3)C2)cc1` (stereo not drawn) [Compound 65], 30 to 50%; under `Cc1ccc(OC2CCC23CCN(C(=O)Cn2cc(NC(=O)CCOc4cccc(C)n4)cn2)C3)cc1` (stereo not drawn) [Compound 195, 3-((6-methylpyridin-2-yl)oxy)-N-(1-(2-oxo-2-(1-(p-tolyloxy)-6-azaspiro[3.4]octan-6-yl)ethyl)-1H-pyrazol-4-yl)propanamide], at least 50%.
For the compound `Cc1ccc(OCCN(C)C(=O)Cn2cc(NC(=O)C3CN(c4ccccc4)C3)cn2)cc1` [Compound 138], the activation at 10 µM was under 30%.
Compound `Cc1ccc(C(=O)c2ccc(N(C)C(=O)Cn3cc(NC(=O)CCOc4ccccc4)cn3)cn2)cc1` [Compound 115] displayed an activation at 10 µM of under 30%.
Take `Cc1ccc(OCCN(C)C(=O)Cn2cc(NC(=O)[C@H]3CCc4ccccc4O3)cn2)cc1` [Compound 202]: the activation at 10 µM fell in the range of 30 to 50%.
Consider `Cc1ccc(OCCN(C)C(=O)Cn2cc(NC(=O)CCN3CCOc4ccccc43)cn2)cc1` [Compound 85], for which the activation at 10 µM is under 30%.
Turning to `[2H]C([2H])([2H])c1ccc(OCCN(C)C(=O)Cn2cc(NC(=O)C3CNc4ccccc4O3)cn2)cc1` (stereo not drawn) [Compound 201], the activation at 10 µM is at least 50%.
Compound `O=C(CCOc1ccccc1)Nc1cnn(CC(=O)Nc2ccc(C3CCCCC3)cc2)c1` [Compound 31] came in with an activation at 10 µM of under 30%.
For `Cc1ccc(OCCN(C)C(=O)Cn2cc(NC(=O)[C@@H]3COc4ccccc4O3)cn2)cc1` [Compound 156] the value was under 30%.
As to `Cc1ccc(O[C@H]2CCCN(C(=O)Cn3cc(NC(=O)COc4ccccc4)cn3)C2)cc1` [Compound 146, N-[1-[2-[(3S)-3-(4-methylphenoxy)-1-piperidyl]-2-oxo-ethyl]pyrazol-4-yl]-2-phenoxy-acetamide], the activation at 10 µM is under 30%.
For `O=C(CCOc1ccccc1)Nc1cnn(CC(=O)N2CCCN(c3ccc(F)cn3)CC2)c1` [Compound 33] the value was under 30%; for `Cc1ccc(O[C@H]2CCCN(C(=O)Cn3cc(NC(=O)[C@@H]4CNc5ccccc5O4)cn3)C2)cc1` [Compound 123], under 30%.
For `Cc1ccccc1OCCC(=O)Nc1cnn(CC(=O)N(C)c2ccccc2Oc2ccccc2)c1` [Compound 44] the value was under 30%.
Under `O=C(Nc1cnn(CC(=O)N2CCC[C@H](Oc3ccc(C(F)(F)F)cn3)C2)c1)[C@H]1COc2ccccc2O1` [Compound 188, (R)—N-(1-(2-oxo-2-((S)-3-((5-(trifluoromethyl)pyridin-2-yl)oxy)piperidin-1-yl)ethyl)-1H-pyrazol-4-yl)-2,3-dihydrobenzo[b][1, 4]dioxine-2-carboxamide] stands under 30%.
Turning to `Cc1ccc(O[C@H]2CCCN(C(=O)Cn3cc(NC(=O)COc4ccccn4)cn3)C2)cc1` [Compound 150], the activation at 10 µM was under 30%.
`CN(C(=O)Cn1cc(NC(=O)CCOc2ccccc2)cn1)c1ccc(Oc2ccc(C(F)(F)F)cc2)c(F)c1` [Compound 54] returned an activation at 10 µM of under 30%.
As to `Cc1ccc(OCCN(C)C(=O)Cn2cc(NC(=O)C3CC(Nc4ncc(F)cn4)C3)cn2)cc1` (stereo not drawn) [Compound 170], the activation at 10 µM is under 30%.
For `Cc1ccc(OCCN(C)C(=O)Cn2cc(N(C)C(=O)[C@@H]3CCCC[C@@H]3c3ccccc3)cn2)cc1` [Compound 19] the value was under 30%.
For `Cc1ccc(OC2CCCCN(C(=O)Cn3cc(NC(=O)CCOc4ccccc4)cn3)C2)cc1` (stereo not drawn) [Compound 117] the value was at least 50%; for `Cc1ccc(OC2CCCN(C(=O)Cn3cc(NC(=O)CCOc4cncc(F)c4)cn3)C2)cc1` (stereo not drawn) [Compound 75], under 30%.
Under `Cc1ccc(OCCN(C)C(=O)Cn2cc(NC(=O)[C@@H]3CC[C@@H](Oc4ccccc4)C3)cn2)cc1` [Compound 8, (1R,3R)—N-(1-(2-(methyl(2-(p-tolyloxy)ethyl)amino)-2-oxoethyl)-1H-pyrazol-4-yl)-3-phenoxycyclopentanecarboxamide hydrochloride] stands under 30%; under `Cc1ccc(OC2CCCC23CN(C(=O)Cn2cc(NC(=O)CCOc4cccc(C)n4)cn2)C3)cc1` (stereo not drawn) [Compound 196], at least 50%.
`COc1ncc(Cl)cc1NCCC(=O)Nc1cnn(CC(=O)N2CCC[C@@H](Oc3ccc(C)cc3)C2)c1` [Compound 158]: the activation at 10 µM is under 30%.
Turning to `COc1ccc2c(c1)CC(C(=O)Nc1cnn(CC(=O)N(C)CCOc3ccc(C)cc3)c1)CO2` (stereo not drawn) [Compound 63], the activation at 10 µM is under 30%.
`Cc1ccc(OCCC(=O)Nc2cnn(CC(=O)N3CCCCC(Oc4ccccc4)C3)c2)cc1` (stereo not drawn) [Compound 48]: the activation at 10 µM was under 30%.
Under `Cc1ccc(Oc2ccc(N(C)C(=O)Cn3cc(NC(=O)CCOc4ccccc4C)cn3)cc2)cc1` [Compound 32, N-(1-(2-(methyl(4-(p-tolyloxy)phenyl)amino)-2-oxoethyl)-1H-pyrazol-4-yl)-3-(o-tolyloxy)propanamide hydrochloride] stands under 30%.
For `Cc1ccc(OCCN(C)C(=O)Cn2cc(NC(=O)C3CNCC3Nc3ccnc(F)n3)cn2)cc1` (stereo not drawn) [Compound 203] the value was under 30%; for `Cc1ccc(O[C@@H]2CCCN(C(=O)Cn3cc(NC(=O)CCNc4ccnc(F)n4)cn3)C2)cc1` [Compound 176], 30 to 50%; for `CN(C(=O)Cn1cc(NC(=O)CCOc2ccccc2)cn1)c1ccc(Oc2ccc(C(F)(F)F)cc2)cc1` [Compound 42, N-(1-(2-(methyl(4-(4-(trifluoromethyl)phenoxy)phenyl)amino)-2-oxoethyl)-1H-pyrazol-4-yl)-3-phenoxypropanamide hydrochloride], under 30%.
Take `Cc1ccc(OC2CCCN(C(=O)Cn3cc(NC(=O)CCNc4ccnc(F)n4)cn3)CC2)cc1` (stereo not drawn) [Compound 172]: the activation at 10 µM is under 30%.
For `Cc1ccc(OCCN(C)C(=O)Cn2cc(NC(=O)C3Oc4cccc(C(C)C)c4O3)cn2)cc1` (stereo not drawn) [Compound 124] the value was under 30%; for `CC(C)c1cncc(F)c1OCCC(=O)Nc1cnn(CC(=O)N2CCC[C@H](Oc3ccc(C(F)(F)F)cn3)C2)c1` [Compound 161], at least 50%.
Under `Cc1ccc(OCCN(C)C(=O)Cn2cc(NC(=O)C3CCC3Nc3ccnc(F)n3)cn2)cc1` (stereo not drawn) [Compound 167] stands 30 to 50%; under `Cc1ccc(O[C@H]2CCCN(C(=O)Cn3cc(NC(=O)CCNc4c(F)cncc4Cl)cn3)C2)cc1` [Compound 183], at least 50%; under `CC(C)c1cncc(F)c1OCCC(=O)Nc1cnn(CC(=O)N2CCC[C@H](Oc3ccc(OC(F)(F)F)cn3)C2)c1` [Compound 160], 30 to 50%.
Regarding `O=C(CCOc1ccccc1)Nc1cnn(CC(=O)N2CCCC(Oc3ccc(C(F)(F)F)cc3)C2)c1` (stereo not drawn) [Compound 4, N-(1-(2-oxo-2-(3-(4-(trifluoromethyl)phenoxy)piperidin-1-yl)ethyl)-1H-pyrazol-4-yl)-3-phenoxypropanamide hydrochloride], the activation at 10 µM lay within 30 to 50%.
`Cc1ccc(OCCN(C)C(=O)Cn2cc(NC(=O)C3CNc4ncccc4O3)cn2)cc1` (stereo not drawn) [Compound 90, N-(1-(2-(methyl(2-(p-tolyloxy)ethyl)amino)-2-oxoethyl)-1H-pyrazol-4-yl)-3,4-dihydro-2H-pyrido[3,2-b][1,4]oxazine-2-carboxamide hydrochloride]: the activation at 10 µM lay in the range of 30 to 50%.
Compound `Cc1ccc(OC2CCN(C(=O)Cn3cc(NC(=O)CCOc4ccccc4)cn3)CC2)cc1` [Compound 9] had an activation at 10 µM of under 30%.
For `Cc1ccc(OCCN(C)C(=O)Cn2cc(NC(=O)[C@H]3C[C@H](Oc4c(F)cncc4C(C)C)C3)cn2)cc1` [Compound 162] the value was under 30%.

For the origin of these results see patent US20260193244A1 (Protego Biopharma, Inc., priority 2022, published 2026).
